According to patent US8785211B2 (priority 2005, dated 2014):

Target: wild type α-HL single channel (Staphylococcus aureus, UniProt P09616)
Type: binding

Sequence of wild type α-HL single channel (P09616 27-319 limits assumed): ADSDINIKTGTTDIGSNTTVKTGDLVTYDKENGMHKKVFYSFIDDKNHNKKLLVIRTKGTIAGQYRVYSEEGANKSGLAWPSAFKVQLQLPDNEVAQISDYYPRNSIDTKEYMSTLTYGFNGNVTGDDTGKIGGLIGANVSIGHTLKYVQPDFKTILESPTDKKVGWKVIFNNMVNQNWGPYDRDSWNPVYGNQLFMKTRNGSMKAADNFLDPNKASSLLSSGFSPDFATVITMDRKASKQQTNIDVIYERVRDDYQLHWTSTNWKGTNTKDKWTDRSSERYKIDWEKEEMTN

For “heptakis-6-amino-β-cyclodextrin [am7-βCD]”, the “Cyclodextrin binding to wild type pore” value was “led to cyclodextrin binding events”.
